Measured values from US4650799A, “Bis-dioxopiperazine derivatives, process for their preparation, antitumor agents comprising them and compositions containing them” (Zenyaku Kogyo Kabushiki Kaisha, priority 1983, dated 1987).

Key:
[1] = test system: P388 lymphocytic leukemia; test: Animal Test on P388 Lymphocytic Leukemia (increase in life span); format: in vivo, mice [CDF1 (BALB/c×DBA/2)]; conditions: Mus musculus, P388, ip, i.p.; for ILS at 20 mg/kg / ILS at 60 mg/kg: 216 h; for ILS at 20 mg/kg: 20 mg/kg × 9 days; for ILS at 200 mg/kg: 200 mg/kg × 2 (1st and 5th day); for ILS at 60 mg/kg: 60 mg/kg × 9 days
Description: The treated group to which the compound of the present invention was administered consisted of seven mice, while the control group consisted of ten mice. Six weeks old male mice [CDF1 (BALB/c×DBA/2), 25±2 g of body weight] were employed as host animals.
Tumor cells (1.0×10^6) of P388 lymphocytic leukemia were transplanted intraperitoneally into each mouse. The treatment began one day after the transplantation and the prescribed dose of each test compound was administered intraperitoneally to the mice once a day for 9 days or on the 1st and 5th day.
Antitumor activity of the test compound was evaluated by the rate of increase in life span (I.L.S.%) which was calculated with the following formula. [formula] T: mean survival time of treated mice C: mean survival time of control mice

B-16 melanoma = test: Animal Test on B-16 Melanoma (increase in life span); format: in vivo, mice [BDF1 (C57BL/6×DBA/2)]; conditions: Mus musculus, B16, ip, 192 h, i.p., 8 days; for ILS at 30 mg/kg: 30 mg/kg daily; for ILS at 20 mg/kg: 20 mg/kg daily
Description: The treated group to which the compound of the present invention was administered consisted of seven mice, while the control group consisted of ten mice. Six weeks old male mice [BDF1 (C57BL/6×DBA/2) 25±2 g of body weight] were employed as host animals.
Tumor cells (5×10^5) of B-16 melanoma were transplanted intraperitoneally into each mouse. The treatment began one day after the transplantation and the prescribed dose of each test compound was administered intraperitoneally to the mice once a day for 8 days.
Antitumor activity of the test compound was evaluated by the rate of increase in life span (I.L.S.%) which was calculated in the same manner as used in the animal test on P388 lymphocytic leukemia.

[2] = test system: Colon adenocarcinoma No. 38; test: Animal Test on Colon Adenocarcinoma No. 38 (growth inhibition); format: in vivo, mice [BDF1 (C57BL/6×DBA/2)]; conditions: 60 mg/kg daily, orally, 8 days; tumor weight on 30th day
Description: (§1) Antitumor activities of bis-dioxopiperazine derivatives which the present invention concerns were verified by the growth inhibition or the increase of life span in experimental animals with syngenic tumors such as P388 lymphocytic leukemia, Lewis lung carcinoma, B-16 melanoma and Colon Adenocarcinoma No. 38 as shown below.
(§2) The treated group to which the compound of the present invention was administered consisted of seven mice, while the control group consisted of ten mice. Six weeks old male mice [BDF1 (C57BL/6×DBA/2), 25±2 g of body weight] were employed as host animals.
Tumor cells (40 mg of fragment) of Colon adenocarcinoma No. 38 were transplanted subcutaneously in inguinal region of each mouse. The treatment began one day after the transplantation and the prescribed dose of each test compound was administered orally to the mice once a day for 8 days.
On the 30th day after the transplantation, the tumors of all the mice were excised and weighed. Antitumor activity of the test compound was evaluated by the rate of growth inhibition (G.I.%) which was calculated in the same manner as used in the animal test on Lewis lung carcinoma.

Lewis lung carcinoma = test: Animal Test on Lewis Lung Carcinoma (growth inhibition, metastasis); format: in vivo, mice [BDF1 (C57BL/6×DBA/2)]; conditions: orally, 8 days, tumor weight on 20th day
Description: as §1, §2
Tumor cells (5×10^5) of Lewis lung carcinoma were transplanted subcutaneously in inguinal region of each mouse. The treatment began one day after the transplantation and the prescribed dose of each test compound was administered orally to the mice once a day for 8 days.
On the 20th day after the transplantation, the tumors of all the mice were excised and weighed. Antitumor activity of the test compound was evaluated by the rate of growth inhibition (G.I.%) which was calculated with the following formula. [formula] T: mean tumor weight of treated mice C: mean tumor weight of control mice

Acute Toxicity Test = conditions: mouse, in vivo
Description: The test group to which the compound of the present invention was administered consisted of ten mice. Five weeks old male mice (ddY, 23±2 g of body weight) were employed as test animals.

[3] = protic polar solvents such as water, lower alcohol; background statement on known compound; cited from earlier work

Row | SMILES | ILS at 20 mg/kg [1] [%] | ILS at 200 mg/kg [1] [%] | ILS at 20 mg/kg (B-16 melanoma) [%] | other results
1 | CC(C)(Oc1ccc(Cl)cc1)C(=O)OCN1C(=O)CN(CCN2CC(=O)N(COC(=O)C(C)(C)Oc3ccc(Cl)cc3)C(=O)C2)CC1=O [1,2-bis[4-(2-p-chlorophenoxy-2-methylpropionyloxymethyl)-3,5-dioxopiperazin-1-yl]ethane] | 63 | 114 | – | ILS at 30 mg/kg (B-16 melanoma): 86%
2 | CC(C)COC(=O)OCN1C(=O)CN(CCN2CC(=O)N(COC(=O)OCC(C)C)C(=O)C2)CC1=O [1,2-bis(4-isobutoxycarbonyloxymethyl-3,5-dioxopiperazin-1-yl)ethane] | 78 | 138 | 86 | ILS at 60 mg/kg [1]: 175%; G.I. [2]: 68.8%; G.I. (Lewis lung carcinoma; 50 mg/kg daily): 54.4%; LD50 (Acute Toxicity Test; ip, 14 days observation): > 850 mg/kg; LD50 (Acute Toxicity Test; po): > 1000 mg/kg
3 | COc1ccccc1C(=O)OCN1C(=O)CN(CCN2CC(=O)N(COC(=O)c3ccccc3OC)C(=O)C2)CC1=O [1,2-Bis(4-o-methoxybenzoyloxymethyl-3,5-dioxopiperazin-1-yl)ethane] | 113 | 99 | – | –
4 | O=C(OCN1C(=O)CN(CCN2CC(=O)N(COC(=O)c3ccco3)C(=O)C2)CC1=O)c1ccco1 [1,2-bis[4-(2-furoyloxymethyl)-3,5-dioxopiperazin-1-yl]ethane] | – | > 200 | 88 | –
5 | O=C(CCl)OCN1C(=O)CN(CCN2CC(=O)N(COC(=O)CCl)C(=O)C2)CC1=O [1,2-Bis(4-chloroacetoxymethyl-3,5-dioxopiperazin-1-yl)ethane] | 54 | 38 | 38 | G.I. (Lewis lung carcinoma; 50 mg/kg daily): 66.8%
6 | COc1ccc(C=CC(=O)OCN2C(=O)CN(CCN3CC(=O)N(COC(=O)C=Cc4ccc(OC)cc4)C(=O)C3)CC2=O)cc1 [1,2-bis(4-p-methoxycinnamoyloxymethyl-3,5-dioxopiperazin-1-yl)ethane] | 78 | 36 | – | –
7 | O=C1CN(CCN2CC(=O)N(CN3CCOCC3)C(=O)C2)CC(=O)N1CN1CCOCC1 [1,2-bis(4-morpholinomethyl-3,5-dioxopiperazin-1-yl)ethane, reference compound] | 90 | – | 40 | ILS at 100 mg/kg ([1]; 100 mg/kg × 2 (1st and 5th day)): 60%; G.I. [2]: 72.8%; stability in protic polar solvents [3]: extremely unstable in the protic polar solvents such as water, lower alcohol and so on; G.I. (Lewis lung carcinoma; 60 mg/kg daily): 22.6%; LD50 (Acute Toxicity Test; ip, 14 days observation): 280 mg/kg; LD50 (Acute Toxicity Test; po): > 1000 mg/kg
8 | O=C(OCN1C(=O)CN(CCN2CC(=O)N(COC(=O)c3ccccc3Cl)C(=O)C2)CC1=O)c1ccccc1Cl [1,2-Bis(4-o-chlorobenzoyloxymethyl-3,5-dioxopiperazin-1-yl)ethane] | 55 | 90 | 65 | G.I. (Lewis lung carcinoma; 40 mg/kg daily): 43.7%
9 | O=C(CSc1ccc(Br)cc1)OCN1C(=O)CN(CCN2CC(=O)N(COC(=O)CSc3ccc(Br)cc3)C(=O)C2)CC1=O [1,2-bis(4-p-bromophenylthioacetoxymethyl-3,5-dioxopiperazin-1-yl)ethane] | – | 108 | – | –
10 | O=C(COc1cc(Cl)c(Cl)cc1Cl)OCN1C(=O)CN(CCN2CC(=O)N(COC(=O)COc3cc(Cl)c(Cl)cc3Cl)C(=O)C2)CC1=O [1,2-bis[4-(2,4,5-trichlorophenoxyacetoxymethyl)-3,5-dioxopiperazin-1-yl]ethane] | 65 | 94 | – | –
11 | CCOC(=O)OCN1C(=O)CN(CCN2CC(=O)N(COC(=O)OCC)C(=O)C2)CC1=O [1,2-bis(4-ethoxycarbonyloxymethyl-3,5-dioxopiperazin-1-yl)ethane] | 48 | 45 | – | –
12 | COC(=O)OCN1C(=O)CN(CCN2CC(=O)N(COC(=O)OC)C(=O)C2)CC1=O [1,2-Bis(4-methoxycarbonyloxymethyl-3,5-dioxopiperazin-1-yl)ethane] | 75 | 103 | – | G.I. (Lewis lung carcinoma; 60 mg/kg daily): 57.7%; ILS at 30 mg/kg (B-16 melanoma): 78%; LD50 (Acute Toxicity Test; ip, 14 days observation): ~500 mg/kg; LD50 (Acute Toxicity Test; po): > 2000 mg/kg
13 | O=C(OCN1C(=O)CN(CCN2CC(=O)N(COC(=O)c3cccs3)C(=O)C2)CC1=O)c1cccs1 [1,2-Bis[4-(2-thenoyloxymethyl)-3,5-dioxopiperazin-1-yl]ethane] | – | 118 | – | –
14 | O=C(Cc1ccccc1)OCN1C(=O)CN(CCN2CC(=O)N(COC(=O)Cc3ccccc3)C(=O)C2)CC1=O [1,2-bis(4-phenylacetoxymethyl-3,5-dioxopiperazin-1-yl)ethane] | 143 | 204 | 83 | –
15 | O=C(CSc1ccc(F)cc1)OCN1C(=O)CN(CCN2CC(=O)N(COC(=O)CSc3ccc(F)cc3)C(=O)C2)CC1=O [1,2-bis(4-p-fluorophenylthioacetoxymethyl-3,5-dioxopiperazin-1-yl)ethane] | – | 120 | – | ILS at 40 mg/kg (B-16 melanoma; 40 mg/kg daily): 83%
16 | CC(C)(C)C(=O)OCN1C(=O)CN(CCN2CC(=O)N(COC(=O)C(C)(C)C)C(=O)C2)CC1=O [1,2-Bis(4-pivaloyloxymethyl-3,5-dioxopiperazin-1-yl)ethane] | 53 | 66 | – | –
17 | O=C(COc1ccc(Cl)cc1)OCN1C(=O)CN(CCN2CC(=O)N(COC(=O)COc3ccc(Cl)cc3)C(=O)C2)CC1=O [1,2-bis(4-p-chlorophenoxyacetoxymethyl-3,5-dioxopiperazin-1-yl)ethane] | 40 | 94 | – | –
18 | O=C(OCN1C(=O)CN(CCN2CC(=O)N(COC(=O)c3ccccc3)C(=O)C2)CC1=O)c1ccccc1 [1,2-bis(4-benzoyloxymethyl-3,5-dioxopiperazin-1-yl)ethane] | 68 | 107 | 87 | –
19 | O=C(OCN1C(=O)CN(CCN2CC(=O)N(COC(=O)c3ccccc3F)C(=O)C2)CC1=O)c1ccccc1F [1,2-bis(4-o-fluorobenzoyloxymethyl-3,5-dioxopiperazin-1-yl)ethane] | – | 113 | – | –
20 | CC(=O)OCN1C(=O)CN(CCN2CC(=O)N(COC(C)=O)C(=O)C2)CC1=O [1,2-Bis(4-acetoxymethyl-3,5-dioxopiperazin-1-yl)ethane] | 63 | 45 | 39 | ILS at 60 mg/kg [1]: 118%; G.I. [2]: 68.0%; G.I. (Lewis lung carcinoma; 60 mg/kg daily): 79.6%; LD50 (Acute Toxicity Test; ip, 14 days observation): > 1000 mg/kg; LD50 (Acute Toxicity Test; po): > 2000 mg/kg
21 | O=C(Cc1ccccc1Cl)OCN1C(=O)CN(CCN2CC(=O)N(COC(=O)Cc3ccccc3Cl)C(=O)C2)CC1=O [1,2-Bis(4-o-chlorophenylacetoxymethyl-3,5-dioxopiperazin-1-yl)ethane] | 65 | 83 | – | –
22 | CC(=O)Oc1ccc(C=CC(=O)OCN2C(=O)CN(CCN3CC(=O)N(COC(=O)C=Cc4ccc(OC(C)=O)c(OC(C)=O)c4)C(=O)C3)CC2=O)cc1OC(C)=O [1,2-bis[4-(3,4-diacetoxycinnamoyloxymethyl)-3,5-dioxopiperazin-1-yl]ethane] | 35 | 51 | – | –
23 | O=C(COc1ccc(Cl)cc1Cl)OCN1C(=O)CN(CCN2CC(=O)N(COC(=O)COc3ccc(Cl)cc3Cl)C(=O)C2)CC1=O [1.2-Bis[4-(2,4-dichlorophenoxyacetoxymethyl)-3,5-dioxopiperazin-1-yl]ethane] | 49 | 72 | 35 | ILS at 60 mg/kg [1]: 105%
